Holding throughout (format): cell-based
One assay has as its target mMC1R (Mus musculus, UniProt Q01727). Put plainly: CRE/β-galactosidase reporter gene bioassay, agonist activity at mMC1R. To be noted: for mMC1R pharmacology in words: comparisons are to reference peptide 1; for EC50: mMC1R EC50, agonist, HEK-293 cells stably expressing receptor, ±SEM; for mMC1R Fold Diff: fold difference in EC50 vs peptide 1, negative prefix = more potent than 1.

Assay [1] has as its target T1, mMC3R (Mus musculus, UniProt P33033). Kind of assay: cell-based.
The target of assay [2] is T2, mMC4R (Mus musculus, UniProt P56450). Put plainly: CRE/β-galactosidase reporter gene bioassay, agonist activity at mMC4R. The conditions noted are these: for mMC4R Fold Diff.: fold difference in EC50 vs peptide 1, negative prefix = more potent than 1.
Another assay deals with mMC5R (Mus musculus, UniProt P41149). Put plainly: CRE/β-galactosidase reporter gene bioassay, agonist activity at mMC5R. To be noted: for mMC5R pharmacology in words: comparisons are to reference peptide 1; for mMC5R Fold Diff.: fold difference in EC50 vs peptide 1, negative prefix = more potent than 1.
Assay [3] has as its target T2, mMC4R. Put plainly: Antagonist Schild analysis against agonist MTII at mMC4R. The conditions noted are these: for mMC4R pharmacology class printed in Fold Diff. column (Ant, SA): Ant = antagonist, SA = some stimulatory activity at 100 µM.
The target of assay [4] is T1, mMC3R. Put plainly: Antagonist Schild analysis against agonist MTII at mMC3R. The conditions noted are these: for mMC3R pharmacology class printed in Fold Diff column (Ant, SA): Ant = antagonist, SA = some stimulatory activity at 100 µM.
The mark [5] stands for this setting: ligand at 100 μM, compared to maximal response generated by α-MSH.

Square brackets hold non-standard residues; d marks the D form. Peptide text beside a SMILES is read from it. * marks the point of attachment. Bip = N[C@@H](Cc1ccc(-c2ccccc2)cc1)C(=O)O; dBip = N[C@H](Cc1ccc(-c2ccccc2)cc1)C(=O)O; dPhe(4-I) = N[C@H](Cc1ccc(I)cc1)C(=O)O; 2Nal = N[C@@H](Cc1ccc2ccccc2c1)C(=O)O; 4Pal = N[C@@H](Cc1ccncc1)C(=O)O; Tic = O=C(O)[C@@H]1Cc2ccccc2CN1; Octanoyl = CCCCCCCC(=O)*

Sequence of mMC5R (P41149 whole entry): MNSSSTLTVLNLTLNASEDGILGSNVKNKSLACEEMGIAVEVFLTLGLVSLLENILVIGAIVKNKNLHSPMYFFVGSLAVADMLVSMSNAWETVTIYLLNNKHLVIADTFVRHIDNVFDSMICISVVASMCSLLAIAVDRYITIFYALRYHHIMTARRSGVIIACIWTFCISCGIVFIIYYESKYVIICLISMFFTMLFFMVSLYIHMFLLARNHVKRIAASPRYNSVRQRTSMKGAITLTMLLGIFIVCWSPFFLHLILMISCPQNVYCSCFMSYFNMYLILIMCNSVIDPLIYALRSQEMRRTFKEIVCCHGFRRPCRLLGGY
T1 sequence (P33033 whole entry): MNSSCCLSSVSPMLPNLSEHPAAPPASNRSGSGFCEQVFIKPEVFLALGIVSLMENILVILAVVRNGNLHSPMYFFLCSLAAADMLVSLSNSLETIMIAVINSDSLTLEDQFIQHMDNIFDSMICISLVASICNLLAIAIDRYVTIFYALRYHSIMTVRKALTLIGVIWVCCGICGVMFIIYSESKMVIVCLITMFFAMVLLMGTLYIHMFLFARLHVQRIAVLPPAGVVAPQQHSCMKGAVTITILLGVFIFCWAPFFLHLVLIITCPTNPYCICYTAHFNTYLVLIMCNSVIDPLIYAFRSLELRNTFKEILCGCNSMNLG
Sequence of mMC1R (Q01727 whole entry): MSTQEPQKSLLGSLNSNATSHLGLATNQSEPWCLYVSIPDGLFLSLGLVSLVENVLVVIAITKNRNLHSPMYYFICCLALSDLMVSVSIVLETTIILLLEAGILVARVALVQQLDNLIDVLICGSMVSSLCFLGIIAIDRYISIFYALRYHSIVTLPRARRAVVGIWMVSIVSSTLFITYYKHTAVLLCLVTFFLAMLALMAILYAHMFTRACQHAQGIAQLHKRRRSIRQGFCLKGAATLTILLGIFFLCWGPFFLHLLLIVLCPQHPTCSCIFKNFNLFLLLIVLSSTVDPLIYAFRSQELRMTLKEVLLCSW
T2 sequence (P56450 whole entry): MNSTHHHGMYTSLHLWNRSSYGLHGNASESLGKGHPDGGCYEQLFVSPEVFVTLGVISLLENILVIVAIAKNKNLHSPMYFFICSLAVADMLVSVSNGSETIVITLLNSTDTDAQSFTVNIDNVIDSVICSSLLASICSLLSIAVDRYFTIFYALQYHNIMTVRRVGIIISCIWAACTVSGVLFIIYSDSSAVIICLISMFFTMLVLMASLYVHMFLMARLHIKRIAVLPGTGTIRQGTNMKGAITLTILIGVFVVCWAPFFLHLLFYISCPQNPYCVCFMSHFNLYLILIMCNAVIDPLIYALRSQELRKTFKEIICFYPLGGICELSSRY

Regarding `CCCCCCCC(=O)N[C@@H](Cc1c[nH]cn1)C(=O)N[C@H](Cc1ccccc1)C(=O)N[C@@H](CCCNC(=N)N)C(=O)N[C@@H](Cc1ccc(-c2ccccc2)cc1)C(N)=O` [Peptide 2, Octanoyl-His-DPhe-Arg-Bip-NH2] (Octanoyl-H[dF]R[Bip]-NH2), on mMC1R, the “mMC1R pharmacology in words” value was “equipotent”. For the same compound, the “mMC3R relative percentage of stimulation at 100 μM” value (shortened to “mMC3R relative percentage”) at mMC3R [1] (100000.0) worked out at 50%−65%. Besides, the “mMC4R relative percentage of stimulation at 100 μM” value at mMC4R [2] (setting [5]) is on record as 40%. On mMC5R, the “mMC5R pharmacology in words” value is reported as “decreased potencies” and the “mMC5R Fold Diff.” value is reported as 12. For the same compound, the “mMC4R pharmacology class printed in Fold Diff. column (Ant, SA)” value at mMC4R [3] is recorded as “Ant”.
One may read the EC50 as the concentration needed to bring the measured effect to its halfway point. For orientation: Kb means the affinity of an antagonist, worked out from how it opposes an agonist. A higher Kb goes with a less potent antagonist. On to `CCCCCCCC(=O)N[C@@H](Cc1cnc[nH]1)C(=O)N[C@H](Cc1ccccc1)C(=O)N[C@@H](CCCNC(=N)N)C(=O)N[C@@H](Cc1ccc(-c2ccccc2)cc1)C(N)=O` [Peptide 2, Octanoyl-His-DPhe-Arg-Bip-NH2] (Octanoyl-H[dF]R[Bip]-NH2), for which the EC50 amounted to 45 ± 12 nM on mMC1R and 62 ± 4 nM on mMC5R. On mMC4R [3], this compound gave a Kb of 100 nM.
As for `CCCCCCCC(=O)N[C@@H](Cc1c[nH]cn1)C(=O)N[C@H](Cc1ccc(-c2ccccc2)cc1)C(=O)N[C@@H](CCCNC(=N)N)C(=O)N[C@@H](Cc1c[nH]c2ccccc12)C(N)=O` [Peptide 7, Octanoyl-His-DBip-Arg-Trp-NH2], on mMC1R, the “mMC1R Fold Diff” value is given as −40 and the midpoint of the response, the EC50, lay at 3.7 ± 0.9 nM. At mMC1R (more potent agonist than 1), the “mMC1R fold difference in EC50, more potent than reference peptide 1” value came out at 40 fold. Further, the “mMC3R relative percentage” value at mMC3R [1] (100000.0) is recorded as 50%−65%. In addition, on mMC3R [1] (setting [5]), the “mMC3R relative percentage” value was 60%. Further, on mMC4R [2], a half-maximal response (EC50) required 500 ± 200 nM and the “mMC4R Fold Diff.” value was 36. Besides, on mMC5R, a half-maximal response (EC50) required 15 ± 4 nM and the “mMC5R pharmacology in words” value is reported as “equipotent”. Moreover, on mMC3R [4], the Kb was 63.1 nM and the “mMC3R pharmacology class printed in Fold Diff column (Ant, SA)” value is recorded as “Ant”.
Turning to `CCCCCCCC(=O)N[C@@H](Cc1c[nH]cn1)C(=O)N[C@H](Cc1ccccc1)C(=O)N[C@@H](CCCNC(=N)N)C(=O)N[C@H](Cc1ccc(-c2ccccc2)cc1)C(N)=O` [Peptide 8, Octanoyl-His-DPhe-Arg-DBip-NH2] (Octanoyl-H[dF]R[dBip]-NH2), on mMC1R, the “mMC1R pharmacology in words” value is recorded as “equipotent” and the EC50 worked out at 180 ± 20 nM. For the same compound, on mMC5R, the response was half-maximal at 31 ± 3 nM (EC50), the “mMC5R pharmacology in words” value is reported as “decreased potencies” and the “mMC5R Fold Diff.” value is 6. In addition, at mMC3R [4], the Kb was 316 nM and the “mMC3R pharmacology class printed in Fold Diff column (Ant, SA)” value was “Ant”. At mMC4R [3], the Kb worked out at 50.1 nM and the “mMC4R pharmacology class printed in Fold Diff. column (Ant, SA)” value was “Ant”.
Turning to `CC(=O)N[C@@H](Cc1ccncc1)C(=O)N[C@H](Cc1ccc(I)cc1)C(=O)N[C@@H](CCCNC(=N)N)C(=O)N[C@@H](Cc1c[nH]c2ccccc12)C(N)=O` [Peptide 16, Ac-4PAL-(pI)DPhe-Arg-Trp-NH2] (Ac-[4Pal][dPhe(4-I)]RW-NH2), on mMC1R, the “mMC1R Fold Diff” value was determined as 20 and the EC50 was determined as 2900 ± 1500 nM. For the same compound, at mMC5R, the EC50 turned out to be 610 ± 250 nM and the “mMC5R Fold Diff.” value was 114. In addition, on mMC3R [4], the Kb was 79.4 nM and the “mMC3R pharmacology class printed in Fold Diff column (Ant, SA)” value is “Ant”. In addition, on mMC4R [3], the Kb was 1.26 nM and the “mMC4R pharmacology class printed in Fold Diff. column (Ant, SA)” value is “Ant”. Also, the “fold preference for the mMC4R versus mMC3R” value on mMC4R [3] (antagonist) was 66 fold.
For the compound `CC(=O)N[C@@H](Cc1ccc(-c2ccccc2)cc1)C(=O)N[C@H](Cc1ccc(I)cc1)C(=O)N[C@@H](CCCNC(=N)N)C(=O)N[C@@H](Cc1c[nH]c2ccccc12)C(N)=O` [Peptide 17, Ac-Bip-(pI)DPhe-Arg-Trp-NH2] (Ac-[Bip][dPhe(4-I)]RW-NH2), at mMC1R, the “mMC1R Fold Diff” value came to 37 and the response was half-maximal at 5200 ± 1700 nM (EC50). Moreover, on mMC5R, the EC50 turned out to be 440 ± 70 nM and the “mMC5R Fold Diff.” value stood at 83. Further, on mMC3R [4], the Kb turned out to be 631 nM and the “mMC3R pharmacology class printed in Fold Diff column (Ant, SA)” value is listed as “Ant”. Besides, at mMC4R [3], the Kb came to 79.4 nM and the “mMC4R pharmacology class printed in Fold Diff. column (Ant, SA)” value is on record as “Ant”.
Take `CC(=O)N[C@@H](Cc1ccncc1)C(=O)N[C@H](Cc1ccc(-c2ccccc2)cc1)C(=O)N[C@@H](CCCNC(=N)N)C(=O)N[C@@H](Cc1c[nH]c2ccccc12)C(N)=O` [Peptide 22, Ac-4PAL-DBip-Arg-Trp-NH2] (Ac-[4Pal][dBip]RW-NH2): on mMC1R, the “mMC1R Fold Diff” value is given as 14 and the response was half-maximal at 1900 ± 720 nM (EC50). In addition, the “mMC3R relative percentage” value on mMC3R [1] (100000.0) amounted to 45%. Moreover, at mMC4R [2], the EC50 is 1300 ± 200 nM and the “mMC4R Fold Diff.” value worked out at 92. On mMC5R, the EC50 came to 1300 ± 300 nM and the “mMC5R Fold Diff.” value worked out at 235. At mMC3R [4], the Kb is 316 nM and the “mMC3R pharmacology class printed in Fold Diff column (Ant, SA)” value is given as “SA Ant”.
For the compound `CC(=O)N[C@@H](Cc1c[nH]cn1)C(=O)N[C@H](Cc1ccc(I)cc1)C(=O)N[C@@H](CCCNC(=N)N)C(=O)N1Cc2ccccc2C[C@H]1C(N)=O` [Peptide 31, Ac-His-(pI)DPhe-Arg-Tic-NH2] (Ac-H[dPhe(4-I)]R[Tic]-NH2), on mMC1R (agonist EC50), the “selectivity for the mMC1R, fold difference as compared to the mMC3R” value is on record as 120 fold; the “selectivity for the mMC1R, fold difference as compared to the mMC4R” value turned out to be 26 fold; the “selectivity for the mMC1R, fold difference as compared to the mMC5R” value was 6 fold. For the same compound, on mMC1R, the “mMC1R pharmacology in words” value is listed as “more potent”, the “mMC1R Fold Diff” value was −6 and it took 24 ± 4 nM to reach a half-maximal effect (EC50). Further, the EC50 on mMC3R [1] came to 2900 ± 400 nM. Moreover, on mMC3R [1] (fold difference in EC50 vs peptide 1, negative prefix = more potent than 1), the “mMC3R Fold Diff” value amounted to 5. Besides, on mMC4R [2], the EC50 stood at 640 ± 60 nM and the “mMC4R Fold Diff.” value was 46. In addition, at mMC5R, the midpoint of the response, the EC50, lay at 130 ± 30 nM; the “mMC5R pharmacology in words” value was “less potent”; the “mMC5R Fold Diff.” value is 25.
Consider `CC(=O)N[C@@H](Cc1c[nH]cn1)C(=O)N[C@H](Cc1ccc(I)cc1)C(=O)N[C@@H](CCCNC(=N)N)C(=O)N[C@@H](Cc1ccccc1)C(N)=O` [Peptide 32, Ac-His-(pI)DPhe-Arg-Phe-NH2] (Ac-H[dPhe(4-I)]RF-NH2), for which the results for the EC50 at mMC1R, at mMC4R [2] and at mMC5R were 91 ± 13 nM, 80 ± 7 nM and 18.4 ± 5.7 nM, respectively. Also, the “mMC3R relative percentage” value on mMC3R [1] (setting [5]) is recorded as 60% at 100 μM. The “mMC4R Fold Diff.” value on mMC4R [2] is 6. The “mMC5R pharmacology in words” value at mMC5R is reported as “equipotent agonists”.
`CC(=O)N[C@@H](Cc1c[nH]cn1)C(=O)N[C@H](Cc1ccc(-c2ccccc2)cc1)C(=O)N[C@@H](CCCNC(=N)N)C(=O)N[C@@H](Cc1ccc2ccccc2c1)C(N)=O` [Peptide 36, Ac-His-DBip-Arg-Nal(2’)-NH2] (Ac-H[dBip]R[2Nal]-NH2): at mMC1R, the “mMC1R pharmacology in words” value is on record as “more potent”, the “mMC1R Fold Diff” value is −8 and the response was half-maximal at 17 ± 5.4 nM (EC50). The “mMC3R relative percentage” value on mMC3R [1] (100000.0) is given as 50%. On mMC4R [2], the half-maximal effective concentration (EC50) was determined as 52 ± 18 nM and the “mMC4R Fold Diff.” value stood at 4. In addition, at mMC5R, the EC50 stood at 20.7 ± 4.1 nM, the “mMC5R pharmacology in words” value was “less potent” and the “mMC5R Fold Diff.” value was found to be 4. For the same compound, at mMC3R [4], the Kb was 25.1 nM and the “mMC3R pharmacology class printed in Fold Diff column (Ant, SA)” value was “SA Ant”.

Values taken from paper PMC6261661 (ACS chemical neuroscience, 2018).
